In publication PMC5884648, “Relationship between the agonist activity of synthetic ligands of TRAIL-R2 and their cell surface binding modes” (Oncotarget, 2018):
*1 amine or outer side, *2 acyl side, *3 side chain or, on linkers, in order; H or OH if unused. Where a SMILES comes first, the peptide text is derived from it. Bridges are numbered along the chain shown (N, C = ends). Roman numbers before positions name the chains, in order. The star is where a group is joined. X1 = CN(CCCC(=O)NC(CCC(=O)[*:1])CCC(=O)[*:2])C(=O)c1ccccc1-c1c2ccc(=N)c(S(=O)(=O)O)c-2oc2c(S(=O)(=O)O)c(N)ccc12; X3 = N=c1ccc2c(-c3cc(C(=O)*)ccc3C(=O)O)c3ccc(N)c(S(=O)(=O)O)c3oc-2c1S(=O)(=O)O

Columns and labels:
human TRAIL-R2 = target: T1, human TRAIL-R2 (Homo sapiens, UniProt O14763); assay: Surface plasmon resonance on sensor-immobilized TRAIL-R2; type: binding; details: SPR, 25° C, Langmuir model
T1 construct: purchased Enzo Life Sciences
Protocol: SPR assays were performed on a Biacore T200™, at 25° C. The running buffer was HBS-EP [10 mM HEPES (pH 7.4) containing 0.15 M NaCl, 3.4 mM EDTA and 0.005% (v/v) Tween P20]. The human TRAIL-R2 (Enzo Life Sciences, Farmingdale, NY, USA) receptor was immobilized on a sCM5 sensor chip (GE Healthcare) using the standard amine coupling procedure. The receptors were diluted in 10 mM acetate buffer (pH 5.0) at a concentration of 5 μg/mL. The TRAIL-R2 immobilization level on the sensor chip was 430 RU. Peptides were injected at a flow rate of 5 μL/min for 120 s and allowed to dissociate for an additional 420 s. Surfaces were then regenerated for 5 s with 25 mM HCl. All binding curves were double-referenced (i.e. subtraction of the data of the empty flow cell followed by the subtraction of the data from a running buffer injection cycle).
(§1) Double-referenced SPR binding curves sets were fitted globally using the BIAevaluation 4.1.1 (GE Healthcare Biacore) or TraceDrawer (Ridgeview Diagnostics AB, Uppsala, Sweden) softwares. The signal recorded with the LigandTracer on an empty spot or slide was subtracted from that recorded on cell-carrying slides. The resulting binding curves were analyzed by kinetic distribution analysis using the tool Interaction Map (Ridgeview Diagnostics AB, Uppsala, Sweden). Interaction Map decomposes the kinetic curve recorded for the binding of a homogeneous ligand to a heterogeneous group of targets into its different components. Results are represented as interaction maps (kon versus koff, log scale), where the color of each populated area represents its degree of contribution to the kinetic curve (red = high contribution, blue = low contribution).

BJAB cells = assay: Cell viability MTS assay, BJAB; type: cell-based, human; details: 24 hours
Protocol: (§2) BJAB, Jurkat and HCT116 cells (10^5 cells/well) were cultured in 100 µL of culture medium in 96-flat bottom well plates. The next day, cells were treated with the indicated concentrations of the different TRAILmin/DR5 peptides. After 24 hours of treatment cell viability measurement was performed by the MTS assay according to the manufacturer specification (Promega Corporation, Madison, WI, USA).

HCT116 cells = assay: Cell viability MTS assay, HCT116; type: cell-based, human; details: 24 hours
Protocol: as §2

[1] = target: T2, TRAIL-R2 expressed on HCT116 cells (Homo sapiens, UniProt O14763); assay: LigandTracer real time binding on living HCT116 cells; details: HCT116 cells expressing TRAIL-R2
T2 construct: we used BJAB, HCT116 and Jurkat that express a natural level of TRAIL-R2 receptors; endogenous in cells; host or cells: HCT116
Protocol: The adherent cells HCT116-TRAIL-R2-DEF and HCT116 cells were directly plated on glass slides (Ø20 mm) (10^6 cells/well). The cells in suspension (BJAB and BJAB-TRAIL-R2-DEF) were covalently adhered to glass slides coated with poly-L-lysine (0.1% v/v) (Sigma Aldrich, Saint Louis, MO, USA). The adhesion was strong enough for measurement during 10h. After 24 hours, the slides were fixed with superglue at different locations of a Petri dish, which was inserted in the LigandTracer Green instrument (Ridgeview Instrument AB, Uppsala, Sweden). An empty spot or empty glass slide fixed to the Petri dish was used to record the background signal. This set-up allowed the simultaneous monitoring of the binding of a given peptide to different cell-carrying glass slides fixed to the dish. […] The fluorescence signal is recorded over time when the slide is out of the solution, and therefore corresponds to the amount of bound peptide. […]
Double-referenced SPR binding curves sets were fitted globally using the BIAevaluation 4.1.1 (GE Healthcare Biacore) or TraceDrawer (Ridgeview Diagnostics AB, Uppsala, Sweden) softwares. The signal recorded with the LigandTracer on an empty spot or slide was subtracted from that recorded on cell-carrying slides. The resulting binding curves were analyzed by kinetic distribution analysis using the tool Interaction Map (Ridgeview Diagnostics AB, Uppsala, Sweden). […]

TRAIL-R2 on BJAB cells = target: T3, TRAIL-R2 on BJAB cells (Homo sapiens, UniProt O14763); assay: Flow cytometry staining with fluorescent peptides, BJAB; type: binding
T3 construct: expressed in transfected cells
Protocol: (§3) 10^6 cells were washed in PBS containing 2% FCS and then incubated at 4° C for 30 min with an anti-TRAIL-R2 antibody (clone BK9 Diaclone, Besançon, France) according to concentration recommended by the manufacturer or with fluorescent peptides at the concentration of 1 µM. After two washes in PBS-2% FBS, TRAIL-R2 expression was monitored by flow cytometry (Guava easyCyte™, Merck Milipore, Darmstadt, Germany) and data were analyzed with InCyte Software (Merck Milipore).

TRAIL-R2 on HCT116 cells = target: T4, TRAIL-R2 on HCT116 cells (Homo sapiens, UniProt O14763); assay: Flow cytometry staining with fluorescent peptides, HCT116; type: binding
T4 construct: we used BJAB, HCT116 and Jurkat that express a natural level of TRAIL-R2 receptors; endogenous in cells; host or cells: HCT116
Protocol: as §3

[2] = target: TRAIL-R2 expressed on BJAB cells (Homo sapiens, UniProt O14763); assay: LigandTracer real time binding on living BJAB cells; design: expressed in transfected cells
Protocol: The adherent cells HCT116-TRAIL-R2-DEF and HCT116 cells were directly plated on glass slides (Ø20 mm) (10^6 cells/well). The cells in suspension (BJAB and BJAB-TRAIL-R2-DEF) were covalently adhered to glass slides coated with poly-L-lysine (0.1% v/v) (Sigma Aldrich, Saint Louis, MO, USA). The adhesion was strong enough for measurement during 10h. After 24 hours, the slides were fixed with superglue at different locations of a Petri dish, which was inserted in the LigandTracer Green instrument (Ridgeview Instrument AB, Uppsala, Sweden). An empty spot or empty glass slide fixed to the Petri dish was used to record the background signal. This set-up allowed the simultaneous monitoring of the binding of a given peptide to different cell-carrying glass slides fixed to the dish. Three mL of solution (culture medium without or with fluorescent peptide) were added to the dish. In the LigandTracer instrument, the dish is tilted and rotates. Consequently the 3 mL solution covers only the lower part of the dish and each cell-carrying slide is alternatively in contact and out of contact with the solution (at intervals of 8 to 16 s). The fluorescence signal is recorded over time when the slide is out of the solution, and therefore corresponds to the amount of bound peptide. The solution in the dish was initially the culture medium (∼30 min) to provide a stable base line. The fluorescent peptide was then added in increasing doses (10, 30 and 90 nM) every two to three hours. Finally the peptide-containing sample was replaced with fresh medium and the dissociation of the peptide from the cells was followed overnight. The measurements were conducted at room temperature (approximately 20° C).
as §1

T1 sequence (O14763 56-440): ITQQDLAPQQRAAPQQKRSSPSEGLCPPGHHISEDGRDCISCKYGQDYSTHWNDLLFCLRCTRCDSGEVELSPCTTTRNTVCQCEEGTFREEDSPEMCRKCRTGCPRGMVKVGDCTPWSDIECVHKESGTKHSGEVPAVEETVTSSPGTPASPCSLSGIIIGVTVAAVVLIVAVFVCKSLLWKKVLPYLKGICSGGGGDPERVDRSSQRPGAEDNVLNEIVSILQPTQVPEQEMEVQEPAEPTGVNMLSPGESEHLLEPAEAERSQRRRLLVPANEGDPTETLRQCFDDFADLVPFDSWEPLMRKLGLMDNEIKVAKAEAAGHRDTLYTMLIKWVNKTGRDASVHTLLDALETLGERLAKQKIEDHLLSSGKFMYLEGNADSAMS
TRAIL-R2 expressed on BJAB cells, sequence (O14763 56-440): as above
T3 sequence (O14763 56-440): as above
T4 sequence (O14763 56-440): as above
T2 sequence (O14763 56-440): as above

| SMILES | koff (human TRAIL-R2) [s⁻¹] | kon (human TRAIL-R2) [M⁻¹ s⁻¹] | apoptosis induction in BJAB cells (BJAB cells) | apoptosis induction in HCT116 cells (HCT116 cells) | cell surface binding [1] | binding by flow cytometry (TRAIL-R2 on BJAB cells; BJAB cells deficient for TRAIL-R2, peptide 1 µM) | binding by flow cytometry (TRAIL-R2 on BJAB cells; BJAB cells expressing TRAIL-R2, peptide 1 µM) | binding by flow cytometry (TRAIL-R2 on HCT116 cells; HCT116 cells deficient for TRAIL-R2, peptide 1 µM) | binding by flow cytometry (TRAIL-R2 on HCT116 cells; HCT116 cells expressing TRAIL-R2, peptide 1 µM) | cell surface binding ([2]; BJAB cells deficient for TRAIL-R2) | cell surface binding ([2]; BJAB cells expressing TRAIL-R2) | fluorescent signal reached ([2]; BJAB cells that expressed TRAIL-R2, 10, 30 and (f1d) 90 nM) |
| --- | --- | --- | --- | --- | --- | --- | --- | --- | --- | --- | --- | --- |
| CC[C@H](C)[C@@H]1NC(=O)[C@H](CCCNC(=N)N)NC(=O)[C@H](CC(N)=O)NC(=O)[C@H](CC(=O)O)NC(=O)[C@H](CC(C)C)NC(=O)[C@@H](NC(=O)[C@H](CC(=O)O)NC(=O)[C@H](Cc2c[nH]c3ccccc23)NC(C)=O)CSSC[C@@H](C(=O)N[C@H](C(=O)N[C@@H](CCCNC(=N)N)C(=O)N[C@@H](CC(C)C)C(N)=O)C(C)C)NC(=O)[C@H](CCC(N)=O)NC(=O)[C@H](CCCNC(=N)N)NC(=O)[C@H](CCCCN)NC(=O)CNC1=O [2m] (Ac-WDCLDNRIGKRQCVRL-NH2; disulfide 3-13; N-terminus and C-terminus assumed) | 0.016 | 3600 |  |  |  |  |  |  |  |  |  |  |
| CC[C@H](C)[C@@H]1NC(=O)[C@H](CCCNC(=N)N)NC(=O)[C@H](CC(N)=O)NC(=O)[C@H](CC(=O)O)NC(=O)[C@H](CC(C)C)NC(=O)[C@@H](NC(=O)[C@H](CC(=O)O)NC(=O)[C@H](Cc2c[nH]c3ccccc23)NC(C)=O)CSSC[C@@H](C(=O)N[C@H](C(=O)N[C@@H](CCCCNC(=O)CCC(CCC(=O)NCCCC[C@H](NC(=O)[C@@H](NC(=O)[C@@H]2CSSC[C@H](NC(=O)[C@H](CC(=O)O)NC(=O)[C@H](Cc3c[nH]c4ccccc34)NC(C)=O)C(=O)N[C@@H](CC(C)C)C(=O)N[C@@H](CC(=O)O)C(=O)N[C@@H](CC(N)=O)C(=O)N[C@@H](CCCNC(=N)N)C(=O)N[C@@H]([C@@H](C)CC)C(=O)NCC(=O)N[C@@H](CCCNC(=N)N)C(=O)N[C@@H](CCCNC(=N)N)C(=O)N[C@@H](CCC(N)=O)C(=O)N2)C(C)C)C(=O)N[C@@H](CC(C)C)C(N)=O)NC(=O)CCCN(C)C(=O)c2ccccc2-c2c3ccc(=N)c(S(=O)(=O)O)c-3oc3c(S(=O)(=O)O)c(N)ccc23)C(=O)N[C@@H](CC(C)C)C(N)=O)C(C)C)NC(=O)[C@H](CCC(N)=O)NC(=O)[C@H](CCCNC(=N)N)NC(=O)[C@H](CCCNC(=N)N)NC(=O)CNC1=O (stereo partly drawn) [f1d] (I: Ac-WDCLDNRIGRRQCVKL-NH2 / II: Ac-WDCLDNRIGRRQCVKL-NH2; disulfide I:3-I:13, II:3-II:13; linker I:15-II:15 via X1; N-terminus and C-terminus assumed) | 0.0014 | 22000 | induced apoptosis | scarcely induced their apoptosis | bound weakly | not | bound | not | bound | weak signals | strong binding | > 25 |
| CC[C@H](C)[C@@H]1NC(=O)[C@H](CCCNC(=N)N)NC(=O)[C@H](CC(N)=O)NC(=O)[C@H](CC(=O)O)NC(=O)[C@H](CC(C)C)NC(=O)[C@@H](NC(=O)[C@H](CC(=O)O)NC(=O)[C@H](Cc2c[nH]c3ccccc23)NC(C)=O)CSSC[C@@H](C(=O)N[C@H](C(=O)N[C@@H](CCCCNC(=O)c2ccc(C(=O)O)c(-c3c4ccc(=N)c(S(=O)(=O)O)c-4oc4c(S(=O)(=O)O)c(N)ccc34)c2)C(=O)N[C@@H](CC(C)C)C(N)=O)C(C)C)NC(=O)[C@H](CCC(N)=O)NC(=O)[C@H](CCCNC(=N)N)NC(=O)[C@H](CCCNC(=N)N)NC(=O)CNC1=O [f1m] (Ac-WDCLDNRIGRRQCVK(X3)L-NH2; disulfide 3-13; N-terminus and C-terminus assumed) | 0.0014 | 14000 | did not induce apoptosis |  |  |  |  |  |  |  | weak binding |  |
